# Like-named read-outs stand apart in the source and are kept apart here.
# How the values were obtained:
# Assay type in all cases: in vivo
# [1] = test system: Tetranychus urticae (spider mites - adult); assay: insecticidal mortality test, contact, French bean leaf; conditions: for mortality at 100 ppm: Tetranychus urticae, 72 h, read-out: grading of mortality, Tua, 100 ppm, 3 days
# Description: (§1) The activity of the Product was determined using a variety of insect pests. The Product was used in the form of liquid preparations containing 500, 250 or 100 parts per million (ppm) by weight of the Product. The preparations were made by dissolving the Product in acetone and diluting the solutions with water containing 0.01% by weight of a wetting agent sold under the trade name "LlSSAPOL" NX until the liquid preparations contained the required concentration of the Product. "Lissapol" is a Registered Trade Mark.
# (§2) The test procedure adopted with regard to each pest was basically the same and comprised supporting a number of the pests on a medium which was usually a host plant or a foodstuff on which the pests feed, and treating either or both the pests and the medium with the preparations. The mortality of the pests was then assessed at periods usually varying from one to three days after the treatment.
# (§3) The results of the tests are given in Table III for each of the Products, at the rate in parts per million given in the second column as a grading of mortality designated as A, B or C wherein A indicates 80-100% mortality, B indicates 50-79% mortality and C indicates less than 50% mortality.
# (§4) In Table 111 the pest organism used is designated by a letter code and the pests species, the support medium or food, and the type and duration of test is given in Table II.
# Myzus persicae (aphids) = assay: insecticidal mortality test, contact, Chinese Cabbage leaf; conditions: 72 h, read-out: grading of mortality, MP
# Description: as §1, §2, §3, §4
# Nilaparvata lugens = assay: insecticidal mortality test, Nephotettix cincticeps replaced by Nilaparvata lugens; conditions: Nilaparvata lugens, in Oryza sativa, 72 h, read-out: grading of mortality, NC with Nilaparvata lugens
# Description: as §1, §2, §3, §4
# [2] = test system: Heliothis virescens (tobacco budworm - larvae); assay: insecticidal mortality test, residual, cotton leaf; conditions: 100 ppm, residual, cotton leaf, read-out: grading of mortality, HV
# Description: as §1, §2, §3, §4
# [3] = test system: Spodoptera exigua (lesser army worm - larvae); assay: insecticidal mortality test, residual, cotton leaf; conditions: read-out: grading of mortality, SP
# Description: as §1, §2, §3, §4
# [4] = test system: Diabrotica balteata (rootworm larvae); assay: insecticidal mortality test, residual, filter paper/maize seed; conditions: read-out: grading of mortality, DB
# Description: as §1, §2, §3, §4
# [5] = test system: Blattella germanica (cockroach nymphs); assay: insecticidal mortality test, residual, plastic pot; conditions: 72 h, read-out: grading of mortality, BG
# Description: as §1, §2, §3, §4
# [6] = test system: Musca domestica (houseflies - adults); assay: insecticidal mortality test, contact, cotton wool/sugar; conditions: read-out: grading of mortality, MD
# Description: as §1, §2, §3, §4
# [7] = test system: Blattella germanica (adult males); assay: Blattella germanica knockdown test; conditions: tests 1 and 2 are repeats; for mortality at 250 ppm / pest or weed control at 250 ppm: Blattella germanica; for mortality at 250 ppm: 48 h, 250 ppm spray, insects held at 25°C and 65% relative humidity for 48 hours, read-out: % MORTALITY 48 hrs; for pest or weed control at 250 ppm: topical, 10 min, Tetramethrin: mean of 27 observations, read-out: % KNOCKDOWN OBSERVED 10 min
# Description: The test compound was dissolved in acetone (2 cm³) and the solution diluted to a concentration of 250 ppm with kerosene. 1 cm³ Of this preparation was sprayed onto 10 Blattella germanica (adult males) held in a netted plastic pot in a Burkhard potter Tower. Assessment of knockdown was performed at intervals of 5 minutes up to a total of 20 minutes. On removal from the Burkhard Potter Tower, the insects were held at 25°C and 65% relative humidity for 48 hours, and an assessment of mortality performed. Each test was repeated.
# In some tests, additional knockdown assessment was performed at intervals of 1, 2, 3 and 4 minutes, and KT₅₀ and KT₉₀ values determined (the time taken, in minutes, to knockdown 50% and 90% respectively of test insects).
# [8] = test system: Musca domestica (adult females); assay: Musca domestica knockdown test; conditions: 1 cm3 of 30 ppm solution in acetone, Kearns and March chamber, 20 adult females, observed over 10 minutes; average of 2 replicates (* single replicate, ** average of 7 tests)
# Description: 1 cm³ Of a 30 ppm solution of the test chemical in acetone was sprayed into a Kearns and March chamber containing 20 Musca domestica (adult females). Knockdown was observed over a period of 10 minutes and KT₅₀ and KT₉₀ values (the time taken for 50% and 90% of the insects to be knocked down) were calculated from the observations. The results given in Table V represent average KT values of 2 replicates except where otherwise stated.
# [9] = test system: Nephotettix cincticeps (green leaf hopper - nymphs); assay: insecticidal mortality test, contact, rice plant; conditions: 100 ppm, contact, rice plant, read-out: grading of mortality, NC
# Description: as §1, §2, §3, §4
# [10] = 250 ppm in kerosene, 1 cm3 sprayed onto 10 adult males
# [11] = 48 h, test duration of 2 days (footnote +)
Structure (SMILES),mortality at 100 ppm [1],mortality at 100 ppm (Myzus persicae (aphids)),"mortality at 100 ppm ([2]; 72 h, 3 days)",mortality at 100 ppm ([3]; 72 h),mortality at 100 ppm ([4]; 72 h),mortality at 100 ppm [5],mortality at 100 ppm ([6]; 24 h),mortality at 250 ppm [7],"pest or weed control at 250 ppm [7, 10]",KT₅₀ [8],KT₉₀ [8],"mortality at 100 ppm ([9]; 72 h, 3 days)",also measured
"C#Cc1c(F)c(F)c(COC(=O)C2C(C=C(Cl)C(F)(F)F)C2(C)C)c(F)c1F (racemic) [Product XVI, 4-Ethynyl-2,3,5,6-tetrafluorobenzyl (1RS, cis)-3-(Z-2-chloro-3,3,3-trifluoroprop-1-en-1-yl)-2,2-dimethylcyclopropanecarboxylate]",50 to 79%,80 to 100%,80 to 100%,80 to 100%,80 to 100%,80 to 100%,80 to 100%,100%,100%,4.6* mins,7.0* mins,,mortality at 100 ppm (Nilaparvata lugens): 80 to 100%
"CC1(C)C(C=C(Cl)C(F)(F)F)C1C(=O)OCc1c(F)c(F)c(CC#N)c(F)c1F (racemic) [Product XII, 4-(Cyanomethyl)-2,3,5,6-tetrafluorobenzyl (1RS, cis)-3-(Z-2-chloro-3,3,3-trifluoroprop-1-en-1-yl)-2,2-dimethylcyclopropanecarboxylate]",80 to 100%,< 50%,80 to 100%,80 to 100%,80 to 100%,80 to 100%,80 to 100%,100%,100%,6.8 min,9.8 min,80 to 100%,
"CC(=O)OCc1c(F)c(F)c(COC(=O)C2C(C=C(Cl)C(F)(F)F)C2(C)C)c(F)c1F (racemic) [Product VI, 4-(Acetoxymethyl)-2,3,5,6-tetrafluorobenzyl (1RS,cis)-3-(Z-2-chloro-3,3,3-trifluoroprop-1-en-1-yl)-2,2-dimethylcyclopropanecarboxylate]",50 to 79%,80 to 100%,80 to 100%,80 to 100%,80 to 100%,80 to 100%,80 to 100%,100%,30%,7.0 min,7.7* mins,80 to 100%,"% KNOCKDOWN OBSERVED 15 min ([7]; 250 ppm in kerosene, 1 cm3 sprayed onto 10 adult males, 15 min): 70%; % KNOCKDOWN OBSERVED 20 min ([7]; 250 ppm in kerosene, 1 cm3 sprayed onto 10 adult males, 20 min): 100%"
"CC1(C)C(C=C(Cl)C(F)(F)F)C1C(=O)OCc1c(F)c(F)c(COC=O)c(F)c1F (racemic) [Product IX, 4-(Formyloxymethyl)-2,3,5,6-tetrafluoromethyl (1RS, trans)-3-(Z-2-chloro-3,3,3-trifluoroprop-1-en-1-yl)-2,2-dimethylcyclopropanecarboxylate]",,80 to 100%,,,,80 to 100%,,100%,100%,10* mins,10* mins,,"grading of mortality, Tua ([1]; 100 ppm, 3 days, listed as IX, 4320 min): C (C indicates less than 50% mortality); mortality at 100 ppm [9, 11]: 80 to 100%; mortality at 100 ppm [2, 11]: 80 to 100%; mortality at 100 ppm ([3]; 48 h): 80 to 100%; mortality at 100 ppm ([4]; 48 h): < 50%; mortality at 100 ppm ([6]; 72 h): < 50%"

# Reference: patent EP0302626A2, “Insecticidal compounds” (IMPERIAL CHEMICAL INDUSTRIES PLC, priority 1987, dated 1989)
